{"source": "ChEMBL document CHEMBL1143401", "about": "“New small-molecule synthetic antimycobacterials” (Antimicrob Agents Chemother, 2005)", "key": {"[1]": {"tested_on": "Mycobacterium tuberculosis", "test": "Antimycobacterial activity against Mycobacterium tuberculosis", "type": "functional"}, "[2]": {"test": "Selectivity index, ratio of MIC for Mycobacterium tuberculosis to cytotoxicity to african green monkey Vero cells", "type": "functional"}, "[3]": {"test": "Toxicity assessed as haemolysis in RBC", "type": "cell-based, Erythrocyte", "conditions": "red blood cells (RBC); read-out: LD50 (the source's name)"}, "[4]": {"tested_on": "Mycobacterium tuberculosis", "test": "Antimycobacterial activity against Mycobacterium tuberculosis H37Ra", "type": "functional"}, "[5]": {"tested_on": "Mycobacterium tuberculosis", "test": "Antimycobacterial activity against Mycobacterium tuberculosis H37Rv", "type": "functional"}, "[6]": {"test": "Selectivity index, ratio of MIC for Mycobacterium tuberculosis to cytotoxicity to […] V79 cells", "type": "functional"}, "[7]": {"molecular_target": "T1, Cell division protein FtsZ (Mycobacterium tuberculosis) (UniProt P9WN95)", "T1 sequence (whole entry)": "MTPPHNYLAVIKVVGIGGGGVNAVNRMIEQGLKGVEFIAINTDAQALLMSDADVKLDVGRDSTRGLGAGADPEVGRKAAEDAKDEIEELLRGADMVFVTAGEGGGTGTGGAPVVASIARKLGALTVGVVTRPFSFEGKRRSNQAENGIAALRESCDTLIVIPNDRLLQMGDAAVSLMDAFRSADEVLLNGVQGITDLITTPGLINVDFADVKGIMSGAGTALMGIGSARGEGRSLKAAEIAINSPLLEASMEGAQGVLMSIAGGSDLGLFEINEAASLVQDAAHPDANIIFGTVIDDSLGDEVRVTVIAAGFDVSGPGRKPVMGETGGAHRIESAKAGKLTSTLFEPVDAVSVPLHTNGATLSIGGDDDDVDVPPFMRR", "test": "Inhibition of Mycobacterium tuberculosis FtsZ"}, "[8]": {"molecular_target": "T2, Enoyl-[acyl-carrier-protein] reductase [NADH] (Mycobacterium tuberculosis) (UniProt P9WGR1)", "T2 sequence (whole entry)": "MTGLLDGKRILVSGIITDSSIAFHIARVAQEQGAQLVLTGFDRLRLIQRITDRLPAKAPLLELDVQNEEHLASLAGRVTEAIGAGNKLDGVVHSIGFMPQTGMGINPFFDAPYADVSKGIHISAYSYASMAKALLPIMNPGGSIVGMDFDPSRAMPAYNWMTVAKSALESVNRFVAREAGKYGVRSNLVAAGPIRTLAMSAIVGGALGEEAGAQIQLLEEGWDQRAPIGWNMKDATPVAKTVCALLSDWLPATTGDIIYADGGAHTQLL", "test": "Inhibition of Mycobacterium tuberculosis InhA at 40 uM"}}, "data": [{"compound": "O=C(Nc1ncccc1[N+](=O)[O-])c1c(O)cccc1Cl", "values": [{"measurement": "MIC", "setting": "[1]", "result": "< 1", "unit": "µg/mL"}]}, {"compound": "Cc1c(CN2CCN(C)CC2)cc(-c2ccc(Cl)cc2)n1-c1ccc(Cl)cc1", "values": [{"measurement": "Selectivity Index", "setting": "[2]", "result": 5.6}, {"measurement": "MIC", "setting": "[1]", "result": 0.7, "unit": "µg/mL"}]}, {"compound": "O=C(COc1cnccn1)N/N=c1\\scc(-c2ccc(Br)cc2)n1-c1ccc(Cl)cc1[N+](=O)[O-]", "values": [{"measurement": "MIC", "setting": "[1]", "result": 0.3, "unit": "µg/mL"}, {"measurement": "HC50", "setting": "[3]", "result": "> 500", "unit": "µg/mL"}]}, {"compound": "CCCCCCCCCCS(=O)(=O)CC(N)=O", "values": [{"measurement": "MIC", "setting": "[1]", "result": 0.75, "unit": "µg/mL"}]}, {"compound": "COc1nc2ccc(Br)cc2cc1[C@@H](c1ccccc1)[C@@](O)(CCN(C)C)c1cccc2ccccc12", "note": "[BEDAQUILINE]", "values": [{"measurement": "MIC", "setting": "[1]", "result": 0.03, "unit": "µg/mL"}]}, {"compound": "CCCCCCCCCCCCCCCCOCCCCOP(=O)(O)C[C@@H]1O[C@H](CO)[C@@H](O)[C@@H]1O", "values": [{"measurement": "MIC", "setting": "[1]", "result": 3.13, "unit": "µg/mL"}]}, {"compound": "N#Cc1c(N2CCN(c3ccc([N+](=O)[O-])cc3)CC2)[n+]([O-])c2ccccc2[n+]1[O-]", "values": [{"measurement": "MIC", "setting": "[1]", "result": 0.1, "unit": "µg/mL"}]}, {"compound": "O=[N+]([O-])c1cn2c(n1)OC[C@@H](OCc1ccc(OC(F)(F)F)cc1)C2", "note": "[PRETOMANID]", "values": [{"measurement": "MIC", "setting": "[1]", "result": 0.13, "unit": "µg/mL"}]}, {"compound": "CN(C)C/C=C(\\c1ccc(Br)cc1)c1ccc(-c2ccccc2)cc1", "values": [{"measurement": "MIC", "setting": "[1]", "result": 1.6, "unit": "µg/mL"}, {"measurement": "MIC", "setting": "[4]", "result": 1.6, "unit": "µg/mL"}, {"measurement": "MIC", "setting": "[5]", "result": 1.6, "unit": "µg/mL"}, {"measurement": "Selectivity Index", "setting": "[6]", "result": "<2"}]}, {"compound": "CN(C)S(=O)(=O)n1cnc2c(=S)[nH]cnc21", "values": [{"measurement": "MIC", "setting": "[1]", "result": 0.78, "unit": "µg/mL"}]}, {"compound": "COc1ccc(C(=O)Nc2ccc(C(=O)NN3C(=O)CSC3c3ccc(F)cc3)cc2)cc1", "note": "(stereo not drawn)", "values": [{"measurement": "MIC", "setting": "[1]", "result": 6.25, "unit": "µg/mL"}]}, {"compound": "O=[N+]([O-])c1c[nH]cc1-c1ccc(Cl)cc1Cl", "values": [{"measurement": "MIC", "setting": "[1]", "result": 1, "unit": "µg/mL"}]}, {"compound": "Clc1nc(C2CCCO2)c2ncn(Cc3ccccc3)c2n1", "note": "(stereo not drawn)", "values": [{"measurement": "Selectivity Index", "setting": "[2]", "result": 10.6}, {"measurement": "MIC", "setting": "[1]", "result": 0.78, "unit": "µg/mL"}]}, {"compound": "c1ccc(-c2ccc(CNc3cccc(-c4c[nH]cn4)c3)cc2)cc1", "values": [{"measurement": "Selectivity Index", "setting": "[2]", "result": 16}, {"measurement": "MIC", "setting": "[1]", "result": 4, "unit": "µg/mL"}]}, {"compound": "CC(=O)/C(=C/C=C/[C@@H](OCc1ccccc1)[C@H](COCc1ccccc1)OCc1ccccc1)CCl", "values": [{"measurement": "MIC", "setting": "[1]", "result": 3.1, "unit": "µg/mL"}]}, {"compound": "CC1Nc2nc(NC(=O)Oc3ccccc3)cc(N)c2N=C1c1ccccc1", "note": "(stereo not drawn)", "values": [{"measurement": "MIC", "setting": "[1]", "result": 1.3, "unit": "µg/mL"}]}, {"compound": "CCCCOc1ccc2nc(C)cc(N/N=C/c3cccc4c(OC)cccc34)c2c1", "values": [{"measurement": "MIC", "setting": "[1]", "result": 0.78, "unit": "µg/mL"}]}, {"compound": "CCOC(=O)Nc1cc(NCCCCN(CC)CC)c2nc(-c3ccccc3)c(-c3ccccc3)nc2n1", "values": [{"measurement": "MIC", "setting": "[1]", "result": 0.15, "unit": "µg/mL"}, {"measurement": "ID50", "setting": "[7]", "result": 52, "unit": "µM"}]}, {"compound": "CC(C)c1ccc(-c2c(N)nnc3c2c2ccccc2n3C)cc1", "values": [{"measurement": "MIC", "setting": "[1]", "result": 1.42, "unit": "µg/mL"}]}, {"compound": "NS#Cc1cc(SCc2ccccc2F)ccn1", "values": [{"measurement": "MIC", "setting": "[1]", "result": 1.2, "unit": "µg/mL"}]}, {"compound": "CC(=O)NC[C@H]1CN(c2ccc(N3CCSCC3)c(F)c2)C(=O)O1", "note": "[SUTEZOLID]", "values": [{"measurement": "MIC", "setting": "[1]", "result": "≤ 0.125", "unit": "µg/mL"}]}, {"compound": "OC12CCCC(C1)SC(c1ccccc1)=N2", "note": "(stereo not drawn)", "values": [{"measurement": "MIC", "setting": "[1]", "result": "≤ 6.25", "unit": "µg/mL"}]}, {"compound": "S=c1oc2c(Cl)cc(Cl)cc2c(=S)n1-c1cccc(Cl)c1", "values": [{"measurement": "MIC", "setting": "[1]", "result": 4, "unit": "µg/mL"}]}, {"compound": "c1ccc(-c2ccc(CNc3ccc(CN4CCSCC4)cc3)cc2)cc1", "values": [{"measurement": "MIC", "setting": "[1]", "result": 0.5, "unit": "µg/mL"}]}, {"compound": "CC(=O)NCCCC[C@H](OC(C)=O)[C@@H](COC(C)=O)OC(C)=O", "values": [{"measurement": "MIC", "setting": "[1]", "result": "≤ 6.25", "unit": "µg/mL"}]}, {"compound": "[H][C@@]12CC[C@H](C(C)CCC(N)=O)[C@@]1(C)CC[C@]1([H])[C@@]3(C)CC[C@]4(C[C@@]3([H])C[C@@H](OC(C)=O)[C@@]21[H])OOC1(CC[C@@H](C)CC1)OO4", "note": "(stereo partly drawn)", "values": [{"measurement": "MIC", "setting": "[1]", "result": 3.12, "unit": "µg/mL"}]}, {"compound": "CCCSc1nc(Cl)c(C#N)c(-c2ccc(F)cc2)n1", "values": [{"measurement": "MIC", "setting": "[1]", "result": 0.78, "unit": "µg/mL"}]}, {"compound": "CC1(C)O[C@H]2OC(COCC(O)CNCCCCCCCCCCCCNCC(O)COCC3O[C@@H]4OC(C)(C)O[C@@H]4[C@H]4OC(C)(C)O[C@@H]34)[C@@H]3OC(C)(C)O[C@@H]3[C@H]2O1", "note": "(stereo partly drawn)", "values": [{"measurement": "MIC", "setting": "[1]", "result": 1.56, "unit": "µg/mL"}]}, {"compound": "O=[N+]([O-])c1ccc(-c2cnn(-c3nccc(C(F)(F)F)n3)c2)c([N+](=O)[O-])c1", "values": [{"measurement": "MIC", "setting": "[1]", "result": 2.5, "unit": "µg/mL"}, {"measurement": "inhibition", "setting": "[8]", "result": 91, "unit": "%"}, {"measurement": "MIC", "setting": "[5]", "result": 2.5, "unit": "µg/mL"}]}, {"compound": "CCCCCCCCCCNC[C@H]1O[C@H](O[C@H]2O[C@H](CNCCCCCCCCCC)[C@@H](O)[C@H](O)[C@H]2O)[C@H](O)[C@@H](O)[C@@H]1O", "values": [{"measurement": "MIC", "setting": "[1]", "result": 1.3, "unit": "µg/mL"}]}, {"compound": "COC(=O)c1ccccc1S(=O)(=O)NC(=O)Nc1nc(C)cc(C)n1", "note": "[SULFOMETURON METHYL]", "values": [{"measurement": "MIC", "setting": "[1]", "result": 0.3, "unit": "µg/mL"}]}, {"compound": "CCCCCCCCCCCCCCCCN[C@H](CC(=O)OCC)[C@@H]1O[C@@H]2OC(C)(C)O[C@@H]2C1OC", "note": "(stereo partly drawn)", "values": [{"measurement": "MIC", "setting": "[1]", "result": 3.12, "unit": "µg/mL"}]}, {"compound": "Cc1ccc2nc(SCc3cc([N+](=O)[O-])cc([N+](=O)[O-])c3)[nH]c2c1", "values": [{"measurement": "MIC", "setting": "[1]", "result": 1.3, "unit": "µg/mL"}]}]}
